Measured values published in patent US9359451B2, “Methods and compositions for treating trauma-hemorrhage using estrogen and derivatives thereof” (THE UAB RESEARCH FOUNDATION, priority 2012, dated 2016).

Key:
injured brain = test: Traumatic brain injury: FDG-PET/CT, diffusion tensor imaging and MRI edema; type: in vivo, rat
Description: (§1) In a second experiment, the efficacy of E2-SO4 treatment for TBI in a lateral fluid percussion (LFP) model was examined. This involved 6 groups of rats (n=5/group). All rats received a craniectomy. Groups 1, 2, 4 and 5 received LFP injury. Groups 1 and 4 were treated with E2 (1 mg/kg) 1 hr post-injury, groups 2 and 5 were vehicle (Veh)-treated and groups 3 and 6 were sham. Groups 1-3 underwent intracranial pressure (ICP), cerebral perfusion pressure (CPP) and partial oxygen pressure (pbtO2) monitoring. Groups 4-6 underwent fludoexoyglucose (FDG)-PET/CT and diffusion tensor imaging (DTI) analysis on days 1 and 7 post-induction. Relative standard uptake values (SUV) of upper half of brain to central value, fractional anisotropy (FA) and apparent diffusion coefficient (ADC) maps were calculated.
Rats were either treated with E2 or a saline vehicle control, where treatment is administered 1 hour after injury. […] The former is the area of deranged nerves, while the latter constitutes intact nerves.

[1] = test system: Sprague-Dawley adult male rats; test: Traumatic brain injury (lateral fluid percussion): ICP, CPP and pbtO2 monitoring; type: in vivo, rat
Description: Sprague-Dawley adult male rats were divided into 4 groups: vehicle, E2-SO4 (1 mg/kg), sham+vehicle and sham+E2-SO4; n=5/group. The TBI model was lateral fluid percussion injury (LFP), induced via a hydraulic pressure pulse to the anesthetized rat's exposed brain. This was introduced through a burr hole in the lateral skull prepared one day prior to LFP. A single iv dose of E2-SO4 or saline vehicle was administered 1 hr after LFP. Physiological parameters were measured 24 hr post-injury.
as §1
FIG. 48B is a plot of cerebral perfusion pressure, which is a derivative of mean arterial pressure less ICP. […] The X axis is shown for an extended 2 hours to confirm stability for the various probes used.
The clinical manifestation of edema after TBI can be seen as increased intracranial pressure, with lower brain perfusion pressure and reduced oxygen tension. […] FIG. 44 compares treatments for TBI with hormones, measured over a 120 min period to control the effects of the invasive probe on pressures. The treatments are progesterone (T+progesterone: magenta), progesterone plus E2-SO4 (T+E+P: brown), E2-SO4 (T+E2SO4: red) and EE-3-SO4 (T+EE-3SO4: yellow).

C[C@]12CC[C@@H]3c4ccc(O)cc4CC[C@H]3[C@@H]1CC[C@@H]2O [17β-estradiol]
reduction in FA, sum of volumes from DTI slices, compared to vehicle controls (injured brain; FIG. 49, treatment 1 hour after injury, images 24 hr after treatment): approximately 50%
FA (fractional anisotropy) change (injured brain; between Veh and treated groups): No significant FA change
Edema size (injured brain; day 1, treated group): 10.4±2.6 mm^3
Edema size (injured brain; day 7, treated group): 1.2±0.7 mm^3
oxygen delivery to the injured brain ([1]; FIG. 48, E2 treatment administered 24 hours after TBI): enhances oxygen delivery to the injured brain
CPP (cerebral perfusion pressure) ([1]; TBI (LFP), 1 mg/kg 1 hr post-injury, Veh 65.2±1.4, sham 82.1±1.3): 75.7±1.4 mmHg
pbtO2 (brain tissue oxygen partial pressure) ([1]; TBI (LFP), 1 mg/kg iv 1 hr after injury, 24 hr post-injury, vehicle 15.8±1.3, sham 39.6): 34.1±1.6 mmHg
